Test [1] addresses T1, HDAC6 (Homo sapiens, UniProt Q9UBN7).
T1 sequence (Q9UBN7 1-1215): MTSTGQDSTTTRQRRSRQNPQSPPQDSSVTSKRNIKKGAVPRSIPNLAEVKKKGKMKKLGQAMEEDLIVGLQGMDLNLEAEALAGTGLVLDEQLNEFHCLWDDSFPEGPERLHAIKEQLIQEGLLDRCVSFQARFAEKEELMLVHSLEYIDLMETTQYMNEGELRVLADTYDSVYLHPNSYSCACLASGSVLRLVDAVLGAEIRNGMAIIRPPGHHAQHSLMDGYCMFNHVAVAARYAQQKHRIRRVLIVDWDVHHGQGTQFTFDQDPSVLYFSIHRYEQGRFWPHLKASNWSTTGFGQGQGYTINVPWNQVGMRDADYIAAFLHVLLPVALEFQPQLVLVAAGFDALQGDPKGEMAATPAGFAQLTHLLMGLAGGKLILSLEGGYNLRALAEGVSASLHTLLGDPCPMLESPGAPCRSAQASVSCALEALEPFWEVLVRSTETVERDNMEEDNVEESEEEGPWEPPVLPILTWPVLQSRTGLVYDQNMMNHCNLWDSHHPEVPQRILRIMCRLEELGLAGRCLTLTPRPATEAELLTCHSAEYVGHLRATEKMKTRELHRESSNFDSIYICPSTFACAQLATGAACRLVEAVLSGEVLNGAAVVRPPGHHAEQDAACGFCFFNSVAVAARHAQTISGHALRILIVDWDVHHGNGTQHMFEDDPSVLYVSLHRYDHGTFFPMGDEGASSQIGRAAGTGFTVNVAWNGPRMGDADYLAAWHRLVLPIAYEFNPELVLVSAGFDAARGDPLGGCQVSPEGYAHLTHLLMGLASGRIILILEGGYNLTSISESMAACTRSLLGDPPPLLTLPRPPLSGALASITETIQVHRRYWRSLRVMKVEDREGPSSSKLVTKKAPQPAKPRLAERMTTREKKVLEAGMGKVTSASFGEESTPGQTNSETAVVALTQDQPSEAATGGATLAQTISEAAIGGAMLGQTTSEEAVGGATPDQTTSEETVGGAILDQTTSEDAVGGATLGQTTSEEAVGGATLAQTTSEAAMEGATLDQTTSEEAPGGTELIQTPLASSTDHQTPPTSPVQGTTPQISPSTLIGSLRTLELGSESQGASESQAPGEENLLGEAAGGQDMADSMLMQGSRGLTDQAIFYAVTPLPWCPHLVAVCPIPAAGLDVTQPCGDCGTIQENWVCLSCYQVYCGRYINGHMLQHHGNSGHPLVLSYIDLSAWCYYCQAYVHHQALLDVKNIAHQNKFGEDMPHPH
The test is described as follows: HDAC6 inhibition and selectivity, '853 Patent. The note with it: worked out from the IC50 of '853 Patent FIG. 3. Format: biochemical. The source says:
Id., col. 114, lines 64-65. […] Id., col. 115, lines 37-38. […] Id., col. 137.
The '853 Patent provides, in its FIG. 3, the following data regarding the HDAC6 selective activity of compound 10, in comparison with other preferred but non-selective inhibitors of HDAC1 and HDAC6, i.e., compounds 8 and 9: […]

Test [2] concerns the target HDAC1 (Homo sapiens, UniProt Q13547). Particulars: '853 Patent FIG. 3; read-out: Inhibiting Concentration IC50 for HDAC1; cited from earlier work.
Test [3] concerns the target T1, HDAC6. The note with it: '853 Patent FIG. 3; read-out: Inhibiting Concentration IC50 for HDAC6; cited from earlier work.
In test [4] the target is T1, HDAC6. Particulars: Itoh et al. enzyme assay; cited from earlier work.
Test [5] relates to A549 cells. The note with it: cited from earlier work.
For test [6], the system named is histone acetylation, gene-expression patterns, cell-cycle progression. Particulars: Haggarty et al.; cited from earlier work.
Test [7] has as its system HDAC6-mediated α-tubulin deacetylation. Particulars: Haggarty et al.; cited from earlier work.

Like-named read-outs stand apart in the source and are kept apart here.

Chain of HDAC1 (Q13547 whole entry, species assumed): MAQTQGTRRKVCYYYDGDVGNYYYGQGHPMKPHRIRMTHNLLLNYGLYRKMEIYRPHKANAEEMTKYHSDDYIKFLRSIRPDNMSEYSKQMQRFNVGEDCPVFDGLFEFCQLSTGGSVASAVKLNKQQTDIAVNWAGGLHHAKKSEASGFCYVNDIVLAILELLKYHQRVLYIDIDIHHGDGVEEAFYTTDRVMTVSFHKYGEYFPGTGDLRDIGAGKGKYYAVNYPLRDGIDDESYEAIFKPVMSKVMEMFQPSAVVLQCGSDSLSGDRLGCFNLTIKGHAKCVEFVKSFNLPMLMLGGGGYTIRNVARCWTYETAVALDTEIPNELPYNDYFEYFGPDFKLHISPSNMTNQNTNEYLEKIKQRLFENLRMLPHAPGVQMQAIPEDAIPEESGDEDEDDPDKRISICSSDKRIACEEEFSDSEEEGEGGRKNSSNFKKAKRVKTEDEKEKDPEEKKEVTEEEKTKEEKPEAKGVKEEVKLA

For the molecule `O=C(CCCC(=O)NCc1ccccc1)NO` [Compound 10], the “times more selective for HDAC6 than HDAC1” value in test [1] is recorded as “about four”. The IC50 was 1.5 ± 0.5 µM in test [2] and 0.38 ± 0.04 µM in test [3].
For the molecule `CC(C)(C)OC(=O)N[C@@H](CCCCCS)C(=O)Nc1cccc(-c2ccccc2)c1` [Compound 13a], in test [4], the IC50 is 0.054 µM, the “selectivity HDAC1/HDAC6 (HDAC1 IC50/HDAC6 IC50)” value (“selectivity HDAC1/HDAC6” for short) is reported as 1.6 and the “selectivity HDAC4/HDAC6 (HDAC4 IC50/HDAC6 IC50)” value (“selectivity HDAC4/HDAC6” below) is reported as 1.0.
Take `CC(C)(C)OC(=O)N[C@@H](CCCCCS)C(=O)Nc1cnc2ccccc2c1` [Compound 15a]: in test [4], the IC50 is 0.032 µM, the “selectivity HDAC1/HDAC6” value was 1.6 and the “selectivity HDAC4/HDAC6” value is listed as 1.0.
As for `CC(C)(C)OC(=O)N[C@@H](CCCCCS)C(=O)NC1CCCC1` [Compound 16a, (S)-tert-butyl 1-(cyclopentylamino)-7-mercapto-1-oxoheptan-2-ylcarbamate], in test [4], the “selectivity HDAC1/HDAC6” value is given as 42 and the “selectivity HDAC4/HDAC6” value was 36.
Take `CC(C)(C)OC(=O)N[C@@H](CCCCCS)C(=O)NC1CCCCC1` [Compound 17a, (S)-tert-butyl 1-(cyclohexylamino)-7-mercapto-1-oxoheptan-2-ylcarbamate]: in test [4], the “selectivity HDAC1/HDAC6” value is 35 and the “selectivity HDAC4/HDAC6” value was 32.
Take `CC(C)(C)OC(=O)N[C@@H](CCCCCS)C(=O)NC1CCCCCC1` [Compound 18a, (S)-tert-butyl 1-(cycloheptylamino)-7-mercapto-1-oxoheptan-2-ylcarbamate]: in test [4], the “selectivity HDAC1/HDAC6” value is 39 and the “selectivity HDAC4/HDAC6” value is 37.
`CC(C)(C)NC(=O)[C@H](CCCCCS)NC(=O)OC(C)(C)C` [Compound 19a, (S)-tert-butyl 1-(tert-butylamino)-7-mercapto-1-oxoheptan-2-ylcarbamate]: in test [4], the IC50 is 0.071 µM, the “selectivity HDAC1/HDAC6” value is 42 and the “selectivity HDAC4/HDAC6” value was 26.
As to `CC(C)(C)OC(=O)N[C@@H](CCCCCS)C(=O)NC12CC3CC(CC(C3)C1)C2` [Compound 20a, (S)-tert-butyl 1-(adamant-1-ylamino)-7-mercapto-1-oxoheptan-2-ylcarbamate], in test [4], the IC50 is 0.082 µM, the “selectivity HDAC1/HDAC6” value is given as 46 and the “selectivity HDAC4/HDAC6” value is 51.
For the molecule `O=C(CCCCCCC(=O)Nc1ccc([C@H]2O[C@@H](CSc3nc(-c4ccccc4)c(-c4ccccc4)o3)C[C@@H](c3ccc(CO)cc3)O2)cc1)NO` [tubacin], the “effect on histone (lysine) acetylation” value in test [5] is “no effect”. The “concentration at which α-tubulin activity (acetylation) is increased” value in test [5] (concentrations as low as) is on record as at most 125 nM. Further, the “effect on level of histone acetylation, gene-expression patterns, or cell-cycle progression” value in test [6] is given as “does not affect”. In test [7], the “inhibition of α-tubulin deacetylation” value was “selective and reversible inhibitor”.

The values above are taken from patent publication US20100136024A1, “Selective Inhibition of Histone Deacetylase 6 for Ocular Neuroprotection or for Treatment or Control of Glaucoma” (priority 2008, published 2010).
